Measurements: patent US8541670B2, “Compositions and methods for inhibiting tumor cell growth” (priority 2007, dated 2013)
pIC50: −log10 of the molar value. Several values for one entry are separate records, joined by “and”; a condition that tells them apart may be missing. Equal entries are not always repeated. Where no end group is shown, it is not given here.

Key:
[1] = molecular target: T1, AKT1 (Homo sapiens, UniProt P31749); test: AKT1 radioactive in vitro kinase assay (32P incorporation into Ser-21 GSK-3 substrate peptide); type: biochemical
T1 construct: purchased Upstate Biotechnology
T1 sequence (P31749 whole entry): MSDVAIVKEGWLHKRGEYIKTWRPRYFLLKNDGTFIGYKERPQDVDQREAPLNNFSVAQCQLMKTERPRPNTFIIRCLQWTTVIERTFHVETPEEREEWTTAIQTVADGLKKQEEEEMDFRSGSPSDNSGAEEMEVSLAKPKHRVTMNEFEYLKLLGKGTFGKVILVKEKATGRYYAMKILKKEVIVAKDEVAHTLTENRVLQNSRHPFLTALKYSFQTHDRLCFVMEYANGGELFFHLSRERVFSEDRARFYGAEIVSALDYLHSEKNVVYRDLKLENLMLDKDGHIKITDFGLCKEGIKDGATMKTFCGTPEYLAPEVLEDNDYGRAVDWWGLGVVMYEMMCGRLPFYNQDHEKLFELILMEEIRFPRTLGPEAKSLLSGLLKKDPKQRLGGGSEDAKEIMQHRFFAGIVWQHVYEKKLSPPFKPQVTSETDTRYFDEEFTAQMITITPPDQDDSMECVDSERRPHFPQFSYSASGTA
Method: AKT1 catalytic activity was determined by measuring the incorporation of −^32P into Ser-21 glycogen synthase kinase 3[…] (GSK-3[…]) substrate peptide. Histogram bars represent the number of −^32P counts per minute (CPM). Reactions were carried out in the presence of different concentrations of the ZaTa peptide (SEQ ID NO:60), as well as a control peptide (SEQ ID NO:59) which shares 11 out of 17 amino acids in common with the N-terminus of the ZaTa peptide.
Of particular interest with regard to inhibitory activity toward AKT was peptide […](SEQ ID NO:60) which flanked the Thr-197 phosphorylation site of PKAc. […] Furthermore, the inhibitory effect of ZaTa peptide was compared with an adjacent peptide ([…] SEQ ID NO:59), a peptide that overlaps with the 11 N-terminal amino acid residues of the ZaTa peptide and carries the Thr-197 phosphorylation site. In this assay, the level of incorporation of −^32 P into Ser-21 GSK-3[…] substrate peptide was used as the measure of AKT1 in vitro catalytic activity.
For non-radioactive kinase assays, typically 25 ng of active AKT1 or PKAc (Upstate Biotechnology) was used in a kinase assay reaction buffer (20 mM MOPS, pH 7.2, 25 mM […]-glycerophosphate, 5 mM EGTA, 1 mM Na3VO4, 1 mM dithiothreitol, 75 mM MgCl2, and 0.5 mM ATP) in the presence of either 1 μL of Ser-9 GSK-3 GST fusion protein (Cell Signaling), or recombinant DARPP-32 (10 μg). For the radioactive kinase assays, typically 25 ng of kinase was added to the kinase assays reaction buffer (20 mM MOPS, pH 7.2, 25 mM […]-glycerophosphate, 5 mM EGTA, 1 mM Na3VO4, 1 mM dithiothreitol) containing 30 μM of dephosphorylated Ser-21 GSK-3 substrate peptide (Upstate Biotechnology) in the presence of different concentrations of inhibitor. Reactions were initiated by adding [−^32P] ATP (10 μCi/reaction) which was diluted in the reaction buffer, plus 500 μM cold ATP and 75 mM MgCl2. Kinase reactions were incubated 30° C. for 10-20 minutes. A 5 μL aliquot of the reaction was transferred to phosphocellulose paper, washed for 30 minutes with dH2O, and CPM of samples read in scintillation counter.

[2] = molecular target: T2, AKT (Homo sapiens, UniProt P31749); test: Screen of PKAc peptide library for effect on catalytic activity of AKT; type: biochemical; conditions: single peptide
T2 construct: purchased Upstate Biotechnology
T2 sequence (P31749 whole entry): as above
Description: Unlike PKAc and protein kinase C (PKC) for which potent inhibitor peptides are readily available and widely used, inhibitors of AKT are generally lacking (Brazil, et al. (2004) supra). […] Moreover, optimal substrate motifs for AKT have been modified to design AKT inhibitors (Obata, et al. (2000) J. Biol. Chem. 275:36108-36115). Because the full-length PKAc protein inhibited the catalytic activity of AKT, a peptide library based on the human (GENBANK Accession No. NP_002721; SEQ ID NO:1) and bovine (GENBANK Accession No. CAA47627; SEQ ID NO:2) PKAc protein sequences was designed and synthesized. This library contained 96 overlapping peptides (Table 1), covering the full-length protein sequence of human and bovine PKAc from the N- to C-terminus. The library was extensively screened to identify fragments of PKAc that mediated the inhibitory effect of PKAc toward AKT.
These peptides included peptide 49 (SEQ ID NO:56), 53 (SEQ ID NO:60), 62 (SEQ ID NO:69), 63 (SEQ ID NO:70) and 64 (SEQ ID NO:71). Combinations of consecutive overlapping peptide fragments were also assayed for an effect on the catalytic activity of AKT. A significant inhibitory effect was also observed when peptides 25 through 36 were combined (i.e., SEQ ID NOs:32-43), peptides 37 through 48 were combined (i.e., SEQ ID NOs:44-55), peptides 49 through 60 were combined (i.e., SEQ ID NOs:56-67), and peptides 61 through 72 were combined (i.e., SEQ ID NOs:68-79).

[3] = tested on: AKT; test: Cell penetration and co-localization of fluorescently labeled ZaTa with AKT; type: cell-based; conditions: immunofluorescence
Description: Peptides can be very effective inhibitors since they efficiently bind to and inhibit enzymatic activity. However, intracellular delivery of peptides can limit their use. With the exception of a few peptides known as cell-penetrating peptides (CPPs), which have been recognized for their use in site-specific drug delivery, inhibitory peptides can have limited intracellular accumulation in in vivo enzymatic studies. […] Based on the primary structure of the ZaTa peptide (i.e., a peptide having a basic arm of several basic residues at the N-terminus and a polar arm composed of several residues with free hydroxyl group at the C-terminus) and in vivo inhibitory effect in the brain, it was determined whether ZaTa peptide was a CPP. The ZaTa peptide was labeled with a red fluorescent dye at its N-terminus given that its C-terminus was important for inhibitory activity. The efficiency of the labeling and the purity of the labeled peptide were assessed by mass spectrometry.
These different localization patterns of ZaTa within the cell were usually accompanied with redistribution of AKT to the site of ZaTa.
Cell cultures were analyzed by growing cells (1×10^4) on coverslips, fixation for 10 minutes in phosphate-buffered saline (PBS) plus 3.7% formaldehyde, and permeabilization for 2 minutes with cold acetone. […]

[4] = tested on: N2a cells; test: Neurite count and live imaging of N2a neurons; type: cell-based
Method: Accordingly, the stability and phenotypic consequences of the AKT-PKAc complex was also analyzed in cultured neurons. N2a cells were treated with vehicle, ZaTa or control peptide for 24 hours. Media was removed after the 24-hour treatment and an equal number of cells from each treatment group was either cultured for another 24 hours without treatment, or lysed and subjected to immunoprecipitation with an antibody against AKT. Those cells cultured for another 24 hours were also harvested and subjected to immunoprecipitation. In parallel, the number of individual neurons with neurites was counted. […] Live images of N2a neurons were captured following treatment with vehicle or ZaTa (2 or 5 μM). […] ZaTa-mediated changes included a progressive loss of neurites, inhibition of new neurite formation, loss of cell motility, as well as formation of large cell colonies.

[5] = mouse, in vivo

Q: With AKRVKGRTWTLCGTPEY [ZaTa] as the sequence, how does the pIC50 ([1]; 32P incorporation into Ser-21 GSK-3 substrate peptide, read-out: IC-50, AKT1 catalytic activity in vitro) read?
A: ~7.00 and 7.00

Q: What about the “IC-50 of the ZaTa peptide (in words)” value ([1]; FIG. 1 legend) of the same sequence?
A: within a nanomolar range

Q: What about the “whether peptide is a substrate for AKT” value ([1]; control kinase reactions with peptide and AKT only) of the same sequence?
A: not a substrate for AKT

Q: And the “inhibitory effect toward AKT, individual library peptides” value [2]?
A: significant inhibitory effects

Q: And the “phosphorylation level of AKT substrates in cells entered by ZaTa” value [3]?
A: decrease in the phosphorylation level of AKT substrates

Q: And the “morphology of N2a neurons, live images” value ([4]; 2 or 5 μM)?
A: dramatic morphological changes

Q: And the “reversibility of neurite reduction” value ([4]; 24-hour incubation in the absence of ZaTa)?
A: reversible

Q: And the “number of neurons with neurites” value ([4]; 24-hour treatment)?
A: significant reduction

Q: What about the “distribution and absorption throughout brain tissue” value [5] of the same sequence?
A: efficient distribution and absorption
